# Reference: publication PMC9503132, “Development of Halogenated-Chalcones Bearing with Dimethoxy Phenyl Head as Monoamine Oxidase-B Inhibitors” (Pharmaceuticals, 2022)
# Where two headings read alike, the source gives them in different places.
# Key:
# MAO-B = target: T1, MAO-B (Homo sapiens, UniProt P27338); assay: MAO-B inhibition assay (recombinant enzyme, benzylamine substrate); type: biochemical; conditions: for remaining activity at 10 µM: read-out: Residual Activity at 10 µM (%) MAO-B
# T1 construct: purchased Sigma-Aldrich
# T1 sequence (P27338 1-520): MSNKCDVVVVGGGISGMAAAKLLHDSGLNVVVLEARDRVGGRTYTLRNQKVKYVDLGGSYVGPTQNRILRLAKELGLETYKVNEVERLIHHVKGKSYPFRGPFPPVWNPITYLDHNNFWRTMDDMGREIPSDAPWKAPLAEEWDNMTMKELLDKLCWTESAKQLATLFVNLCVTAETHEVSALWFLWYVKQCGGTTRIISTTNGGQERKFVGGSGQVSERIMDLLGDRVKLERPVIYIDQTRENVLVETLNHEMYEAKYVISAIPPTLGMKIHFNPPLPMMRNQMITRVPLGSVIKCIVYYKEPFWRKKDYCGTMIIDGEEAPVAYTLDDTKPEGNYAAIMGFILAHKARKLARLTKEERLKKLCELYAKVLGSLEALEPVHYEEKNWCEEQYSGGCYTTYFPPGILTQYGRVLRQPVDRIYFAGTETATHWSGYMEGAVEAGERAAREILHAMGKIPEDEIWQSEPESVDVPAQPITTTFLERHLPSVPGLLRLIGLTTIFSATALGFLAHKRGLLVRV
# Description: (§1) Recombinant MAO-A and MAO-B were used to test the MAO inhibitory activity using the substrates kynuramine and benzylamine (0.06 mM and 0.3 mM, respectively). […] Chemicals were from Sigma-Aldrich.
# (§2) MAO-A At 10 µM, compounds’ inhibitory effects on MAOs were initially recorded. […] The SI values of MAO-B were calculated by dividing the IC50 values for MAO-A and those for MAO-B. The MAO-B was used to study the kinetics of substances DM2 or DM18 at five different substrate concentrations. By using the LB plots and their secondary plots at three different inhibitor doses, the inhibition patterns were examined.
# AChE = AChE (Electrophorus electricus, UniProt O42275); assay: AChE inhibition (colorimetric, acetylthiocholine iodide); type: biochemical; conditions: read-out: Residual activity at 10 µM (%) AChE
# Description: (§3) The AChE and BChE inhibitory activities were measured by continuous colorimetric determination method, in the presence of 0.5 mM acetylthiocholine iodide (ACTI) and butyrylthiocholine iodide […]
# (§4) POP, K LAB, Daejeon, Korea). After adding the substrate, 0.5 mM 5,5-dithiobis (2-nitrobenzoic acid) (DTNB) was added as the color development solution. The BACE-1 inhibitory activity was evaluated by β-secretase (BACE1) activity detection kit (Sigma-Aldrich, St. Louis, Mo, USA) using a fluorescence spectrometer (FS-2, Scinco, Seoul, Korea).
# 64. […] A new and rapid colorimetric determination of acetylcholinesterase activity. Biochem. Pharmacol. 7, 88-95. […]
# BACE-1 = target: T2, BACE-1 (Homo sapiens, UniProt P56817); assay: BACE-1 inhibition (β-secretase activity detection kit); type: biochemical; conditions: read-out: Residual activity at 10 µM (%) BACE-1
# T2 construct: purchased Sigma-Aldrich
# Description: as §3
# as §4, with “Seoul, Korea). […]” for “Seoul, Korea).”
# MAO-A = target: T3, MAO-A (Homo sapiens, UniProt P21397); assay: MAO-A inhibition assay (recombinant enzyme, kynuramine substrate); type: biochemical; conditions: for remaining activity at 10 µM: read-out: Residual Activity at 10 µM (%) MAO-A
# T3 construct: purchased Sigma-Aldrich
# T3 sequence (P21397 1-527): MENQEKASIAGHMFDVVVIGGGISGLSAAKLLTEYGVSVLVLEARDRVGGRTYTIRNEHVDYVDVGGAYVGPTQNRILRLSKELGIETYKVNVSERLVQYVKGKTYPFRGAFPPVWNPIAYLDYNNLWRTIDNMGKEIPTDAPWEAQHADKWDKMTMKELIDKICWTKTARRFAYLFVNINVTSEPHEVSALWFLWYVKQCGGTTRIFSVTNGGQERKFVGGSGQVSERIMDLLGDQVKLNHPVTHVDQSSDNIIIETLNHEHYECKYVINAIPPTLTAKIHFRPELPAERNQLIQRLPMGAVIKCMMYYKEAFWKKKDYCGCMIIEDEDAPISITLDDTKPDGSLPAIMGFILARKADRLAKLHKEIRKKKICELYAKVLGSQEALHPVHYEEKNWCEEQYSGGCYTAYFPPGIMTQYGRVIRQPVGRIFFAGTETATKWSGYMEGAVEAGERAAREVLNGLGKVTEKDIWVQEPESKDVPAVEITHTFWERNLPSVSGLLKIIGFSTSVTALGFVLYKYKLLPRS
# Description: as §1, §2
# BChE = BChE (Equus caballus, UniProt P81908); assay: biochemical; conditions: read-out: Residual activity at 10 µM (%) BChE
# Description: as §3
# as §4, with “Seoul, Korea). […]” for “Seoul, Korea).”
# [1] = IC50 MAO-A divided by IC50 MAO-B
# [2] = 10 µM compound, recombinant MAO-B, benzylamine 0.3 mM
# [3] = recombinant MAO-B, benzylamine 0.3 mM, read-out: IC50 (µM) MAO-B
# [4] = 10 µM compound, recombinant MAO-A, kynuramine 0.06 mM
# [5] = recombinant MAO-A, kynuramine 0.06 mM, read-out: IC50 (µM) MAO-A
# BChE, sequence (P81908 whole entry): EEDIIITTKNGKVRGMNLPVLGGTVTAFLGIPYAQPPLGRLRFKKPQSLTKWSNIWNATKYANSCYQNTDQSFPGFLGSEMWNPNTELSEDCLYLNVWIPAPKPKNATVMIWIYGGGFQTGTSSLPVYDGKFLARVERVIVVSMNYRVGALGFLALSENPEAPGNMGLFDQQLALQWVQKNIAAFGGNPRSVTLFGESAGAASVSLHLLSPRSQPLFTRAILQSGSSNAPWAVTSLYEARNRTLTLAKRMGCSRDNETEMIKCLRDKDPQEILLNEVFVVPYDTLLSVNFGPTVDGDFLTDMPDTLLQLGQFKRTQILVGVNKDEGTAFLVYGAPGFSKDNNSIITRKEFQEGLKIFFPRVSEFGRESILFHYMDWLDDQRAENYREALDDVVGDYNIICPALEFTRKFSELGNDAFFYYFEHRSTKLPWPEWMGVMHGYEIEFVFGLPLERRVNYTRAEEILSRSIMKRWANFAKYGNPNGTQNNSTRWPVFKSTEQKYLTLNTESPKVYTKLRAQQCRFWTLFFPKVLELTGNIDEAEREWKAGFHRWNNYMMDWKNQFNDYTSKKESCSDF
# AChE, sequence (O42275 24-633): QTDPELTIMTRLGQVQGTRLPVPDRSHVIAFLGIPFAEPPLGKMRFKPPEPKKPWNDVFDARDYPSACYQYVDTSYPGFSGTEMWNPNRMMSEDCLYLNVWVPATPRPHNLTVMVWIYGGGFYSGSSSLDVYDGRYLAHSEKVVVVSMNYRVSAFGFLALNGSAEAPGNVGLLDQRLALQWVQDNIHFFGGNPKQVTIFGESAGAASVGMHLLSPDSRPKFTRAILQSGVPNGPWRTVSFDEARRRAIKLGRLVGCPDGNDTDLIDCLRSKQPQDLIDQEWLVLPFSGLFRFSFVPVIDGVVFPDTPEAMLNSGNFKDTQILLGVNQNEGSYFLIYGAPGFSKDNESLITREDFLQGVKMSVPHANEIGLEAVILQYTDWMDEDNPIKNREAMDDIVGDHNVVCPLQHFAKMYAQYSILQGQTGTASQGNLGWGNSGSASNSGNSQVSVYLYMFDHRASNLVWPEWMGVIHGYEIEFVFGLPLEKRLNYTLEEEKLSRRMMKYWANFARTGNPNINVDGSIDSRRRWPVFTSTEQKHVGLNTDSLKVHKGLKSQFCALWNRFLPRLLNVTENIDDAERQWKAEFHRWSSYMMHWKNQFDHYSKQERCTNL
# T2 sequence (P56817 46-501): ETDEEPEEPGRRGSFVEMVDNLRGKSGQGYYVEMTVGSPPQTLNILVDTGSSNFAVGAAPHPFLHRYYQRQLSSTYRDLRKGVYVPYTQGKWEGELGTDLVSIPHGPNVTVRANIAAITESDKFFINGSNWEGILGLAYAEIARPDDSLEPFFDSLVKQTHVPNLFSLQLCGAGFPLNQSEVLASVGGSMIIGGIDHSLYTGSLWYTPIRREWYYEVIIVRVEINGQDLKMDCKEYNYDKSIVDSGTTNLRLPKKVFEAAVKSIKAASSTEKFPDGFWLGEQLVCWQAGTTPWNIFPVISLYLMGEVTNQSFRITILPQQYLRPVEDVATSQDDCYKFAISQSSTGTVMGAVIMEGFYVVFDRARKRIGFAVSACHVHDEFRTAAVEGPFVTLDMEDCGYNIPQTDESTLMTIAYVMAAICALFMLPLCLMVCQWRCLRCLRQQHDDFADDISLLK
Compound,IC50 (MAO-B) [µM],SI (selectivity index for MAO-B as compared to MAO-A) (MAO-B; [1]),remaining activity at 10 µM (MAO-B) [%],remaining activity at 10 µM (AChE) [%],remaining activity at 10 µM (BACE-1) [%],IC50 (MAO-A) [µM],remaining activity at 10 µM (MAO-A) [%],remaining activity at 10 µM (BChE) [%],remaining activity at 10 µM (MAO-B; [2]) [%],IC50 (MAO-B; [3]) [µM],remaining activity at 10 µM (BACE-1; 10 µM compound) [%],remaining activity at 10 µM (MAO-A; [4]) [%],IC50 (MAO-A; [5]) [µM],SI (selectivity index for MAO-B as compared to MAO-A) (MAO-B)
COc1ccc(C(=O)/C=C/c2ccccc2)c(OC)c1 [DM1],0.927 ± 0.021,16.61,17.6 ± 0.74,75.6 ± 2.35,92.67 ± 0.26,15.4 ± 1.97,57.2 ± 1.91,93.21 ± 0.3,,,,,,
COc1ccc(C(=O)/C=C/c2cccc(Cl)c2)c(OC)c1 [DM3],,44.08,,81.5 ± 4.09,,,,69.87 ± 0.19,7.89 ± 0.63,0.13 ± 0.023,99.67 ± 0.53,43.3 ± 1.2,5.73 ± 0.142,
COc1ccc(C(=O)/C=C/c2ccc(Cl)cc2)c(OC)c1 [DM4],0.589 ± 0.055,7.61,18.6 ± 1.04,74.2 ± 2.43,90.82 ± 0.09,4.48 ± 0.152,38.8 ± 3.4,80.1 ± 1.59,,,,,,
COc1ccc(C(=O)/C=C/c2ccccc2Br)c(OC)c1 [DM5],,77.02,,71.2 ± 6.12,,,,60.54 ± 0.03,10.6 ± 1.88,0.161 ± 0.02,87.8 ± 0.29,54.5 ± 4.32,12.4 ± 0.872,
COc1ccc(C(=O)/C=C/c2cccc(Br)c2)c(OC)c1 [DM6],,86.49,,73 ± 0.75,,,,79.7 ± 1.1,5.5 ± 0.64,0.148 ± 0.087,88.53 ± 0.22,62.7 ± 1.32,12.8 ± 1.57,
COc1ccc(C(=O)/C=C/c2ccc(Br)cc2)c(OC)c1 [DM7],,5.60,,87.2 ± 1.19,,,,98.2 ± 1.01,15.6 ± 1.78,0.844 ± 0.023,97.29 ± 0.34,40.3 ± 1.05,4.733 ± 0.005,
COc1ccc(C(=O)/C=C/c2ccccc2F)c(OC)c1 [DM8],,11.90,,82.7 ± 10.4,,,,85.42 ± 0.67,11.1 ± 1.44,1.13 ± 0.033,91.01 ± 0.06,56.4 ± 7.34,13.4 ± 0.82,
COc1ccc(C(=O)/C=C/c2cccc(F)c2)c(OC)c1 [DM9],,45.93,,71.9 ± 3.06,,,,72.5 ± 3.69,10.8 ± 0.23,0.246 ± 0.074,88.2 ± 0.28,50.6 ± 0.82,11.3 ± 1.06,
COc1ccc(C(=O)/C=C/c2ccc(F)cc2)c(OC)c1 [DM10],,8.14,,64.3 ± 6.85,,,,92.84 ± 0.51,23.2 ± 0.37,1.96 ± 0.065,87.13 ± 0.42,53.9 ± 7.17,16 ± 1.47,
COc1ccc(C(=O)/C=C/c2ccccc2)cc1OC [DM11],,6.54,,80.3 ± 5.21,,,,80.5 ± 1.36,14.6 ± 3.48,2.19 ± 0.098,97.5 ± 1.02,64.6 ± 0.72,14.3 ± 1.83,
COc1ccc(C(=O)/C=C/c2ccccc2Cl)cc1OC [DM12],,>32.65,,68.5 ± 2.87,,,,63.5 ± 1.47,8.98 ± 0.92,1.23 ± 0.25,94.3 ± 1.06,88.7 ± 9.4,> 40,
COc1ccc(C(=O)/C=C/c2cccc(Cl)c2)cc1OC [DM13],,>8.51,,95 ± 3.4,,,,100 ± 7.32,7.49 ± 0.12,4.7 ± 0.32,99.86 ± 0.28,75.6 ± 0.88,> 40,
COc1ccc(C(=O)/C=C/c2ccc(Cl)cc2)cc1OC [DM14],,>48.02,,97.6 ± 3.42,,,,76.5 ± 1.37,9.45 ± 2.88,0.833 ± 0.087,99.83 ± 0.81,98.8 ± 1.77,> 40,
COc1ccc(C(=O)/C=C/c2ccccc2Br)cc1OC [DM15],,>55.87,,83.9 ± 4.91,,,,55.2 ± 1.01,10.2 ± 0.17,0.716 ± 0.056,99.54 ± 0.24,77.5 ± 7.07,> 40,
COc1ccc(C(=O)/C=C/c2cccc(Br)c2)cc1OC [DM16],,>35.94,,82.7 ± 9.21,,,,91.2 ± 1.43,11.8 ± 5.27,1.11 ± 0.26,99.74 ± 0.04,76.9 ± 0.88,> 40,
COc1ccc(C(=O)/C=C/c2ccc(Br)cc2)cc1OC [DM17],,>273.97,,81.8 ± 6.31,,,,68.9 ± 1.57,13.8 ± 0.61,0.146 ± 0.041,100.03 ± 0.04,96.88 ± 0.88,> 40,
COc1ccc(C(=O)/C=C/c2cccc(F)c2)cc1OC [DM19],,>88.89,,70 ± 2.02,,,,103 ± 8.13,3.94 ± 1.76,0.45 ± 0.071,99.86 ± 0.12,93.7 ± 7.16,> 40,
COc1ccc(C(=O)/C=C/c2ccc(F)cc2)cc1OC [DM20],,,,86.98 ± 0.45,,,,93.1 ± 6.5,3.7,0.483 ± 0.077,99.89 ± 0.08,97.5 ± 8.95,> 40,>83.82
